Legend:
[1] = tested on: Malassezia furfur NBRC 0656; test: Antibacterial test II (MIC) by an agar medium; type: cell-based; details: YM agar medium added with olive oil, 28° C., 10^5cfu/mL
Description: With respect to the composition of zinc pyrithione and hydrous titanium oxide (Example 3), an antibacterial test (MIC) against Malassezia furfur by an agar medium was performed in comparison with zinc pyrithione.
Sample 19: Composition of zinc pyrithione (manufactured by Kolon Life Science Inc.) and hydrous titanium oxide (Example 3) Sample 20: Zinc pyrithione (manufactured by Kolon Life Science Inc.) Test fungi: Malassezia furfur NBRC 0656 Test medium: YM agar medium added with olive oil Test conditions: culture at 28° C. for 7 days

[2] = Solubility in artificial seawater (zinc determined by atomic absorption spectrometry); type: physicochemical
Description: The solubility of samples shown below in artificial sweater was measured.
Artificial sweater (pH of 7.8) was added to each sample shown below to make total amount of 500 mL, followed by shaking at 20° C. for 24 hours. After filtration, determination of zinc was performed by subjecting the filtrate to atomic absorption spectrometry.

[3] = tested on: Malassezia furfur NBRC 0656; test: Antibacterial test I (MIC) by a liquid culture method; type: cell-based; details: Sabouraud glucose medium + 1% olive oil, shaking at 30° C., 10^6cfu/mL
Description: With respect to the composition of zinc pyrithione and hydrous titanium oxide of Example 2, an antibacterial test (MIC) against Malassezia furfur by a liquid culture method was performed in comparison with zinc pyrithione.
Sample 17: Composition of zinc pyrithione (manufactured by Arch Chemicals, Inc.) and hydrous titanium oxide (Example 2) Sample 18: Zinc pyrithione (manufactured by Arch Chemicals, Inc.) Test fungi: Malassezia furfur NBRC 0656 Test medium: 1% olive oil is added to Sabouraud glucose medium Test conditions: shaking culture at 30° C. for 4 days (120 rpm)

[4] = Yellowness (b* value) of water suspension samples allowed to stand outside for 10 days (photolysis); type: physicochemical; details: suspension in distilled water, dried and ground
Description: The following water suspension samples are charged in a glass bottle, allowed to stand outside for 10 days, dried and ground, and then yellowness (b* value) was measured by a colorimeter.

[5] = artificial seawater pH 7.8, shaking at 20° C. for 24 hours, filtrate

With zinc pyrithione [Sample 6] the “MIC, 7 days” value [1] was 6.25 µg/mL, the “Solubility in artificial seawater II: Value in terms of zinc pyrithione” value ([2]; artificial seawater pH 7.8, 20° C., 24 hours) was 5.24 µg/mL and the “Solubility in artificial seawater II: Quantitative value of zinc” value ([2]; artificial seawater pH 7.8, 20° C., 24 hours, for samples 7 and 8 zinc derived from zinc pyrithione and zinc oxide) was 1.07 µg/mL.

For zinc pyrithione [Sample 2], the “Solubility in artificial seawater I: Quantitative value of zinc” value [2, 5] was 1.16 µg/mL, the “Solubility in artificial seawater I: Value in terms of zinc pyrithione” value [2, 5] was 5.64 µg/mL and the “MIC, 2 days” value ([3]; 2 days) was 6.25 µg/mL. The “MIC, 4 days” value ([3]; 4 days) was 6.25 µg/mL.

In the case of zinc pyrithione [Sample 9], the “Yellowness (b* value)” value [4] is reported as 8.80.

Reference: patent US20100272829A1, “COMPOSITION FOR TRANSDERMAL OR TRANSMUCOSAL ADMINISTRATION” (priority 2007, published 2010)
